Measured values reported in patent US20150353495A1 (PORTOLA PHARMACEUTICALS, INC., priority 2010, published 2015).

Key:
Assay type in all cases: biochemical
JAK1 = target: T1, JAK1 (Homo sapiens, UniProt P23458); assay: Z'-LYTE kinase assay JAK1
T1 construct: 5 μl of catalytic domain recombinant Kinase enzyme+Tyr peptide substrate (Invitrogen, CA); purchased Invitrogen
Summary of the method: (§1)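 Read-out is FRET fluorescence between coumarin and fluorescein on a Tyr6 peptide, lost when the development protease cleaves unphosphorylated substrate. Kinase reaction used recombinant catalytic domain with ATP, 1 h at room temperature, 1% DMSO.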

JAK2 = target: T2, JAK2 (Homo sapiens, UniProt O60674); assay: Z'-LYTE kinase assay JAK2
T2 construct: 5 μl of catalytic domain recombinant Kinase enzyme+Tyr peptide substrate (Invitrogen, CA); purchased Invitrogen
T2 sequence (O60674 849-1124 limits assumed): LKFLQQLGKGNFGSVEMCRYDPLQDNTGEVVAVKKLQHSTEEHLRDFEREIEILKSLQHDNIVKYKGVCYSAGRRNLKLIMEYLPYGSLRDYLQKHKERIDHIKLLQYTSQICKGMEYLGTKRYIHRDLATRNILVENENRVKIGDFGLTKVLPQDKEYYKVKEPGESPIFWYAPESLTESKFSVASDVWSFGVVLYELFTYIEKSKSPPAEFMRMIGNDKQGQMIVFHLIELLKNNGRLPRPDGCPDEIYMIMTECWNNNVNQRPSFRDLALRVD
Summary of the method: as §1

JAK3 = target: T3, JAK3 (Homo sapiens, UniProt P52333); assay: Z'-LYTE kinase assay JAK3
T3 construct: 5 μl of catalytic domain recombinant Kinase enzyme+Tyr peptide substrate (Invitrogen, CA); purchased Invitrogen
T3 sequence (P52333 822-1111 limits assumed): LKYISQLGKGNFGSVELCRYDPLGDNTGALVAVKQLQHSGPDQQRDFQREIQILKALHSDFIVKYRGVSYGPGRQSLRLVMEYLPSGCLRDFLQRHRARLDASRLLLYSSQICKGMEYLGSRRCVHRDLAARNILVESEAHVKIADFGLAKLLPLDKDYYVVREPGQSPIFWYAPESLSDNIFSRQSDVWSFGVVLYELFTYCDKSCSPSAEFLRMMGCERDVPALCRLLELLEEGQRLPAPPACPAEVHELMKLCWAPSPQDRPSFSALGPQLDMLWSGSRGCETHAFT
Summary of the method: as §1

T1 sequence (P23458 875-1153 limits assumed): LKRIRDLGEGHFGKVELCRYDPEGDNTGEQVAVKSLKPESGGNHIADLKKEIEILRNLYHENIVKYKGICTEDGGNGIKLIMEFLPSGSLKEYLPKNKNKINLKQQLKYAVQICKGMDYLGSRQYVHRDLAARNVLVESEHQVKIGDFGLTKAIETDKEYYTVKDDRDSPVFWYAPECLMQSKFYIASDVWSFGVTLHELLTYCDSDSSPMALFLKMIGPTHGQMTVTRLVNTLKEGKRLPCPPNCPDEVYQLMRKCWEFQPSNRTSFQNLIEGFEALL

| SMILES | IC50 (JAK1) [nM] | IC50 (JAK2) [nM] | IC50 (JAK3) [nM] |
| --- | --- | --- | --- |
| NC(=O)c1cnc(Nc2ccc(C3CCOCC3)cc2)cc1NCc1ccncn1 [Example 181, 4-(pyrimidin-4-ylmethylamino)-6-(4-(tetrahydro-2H-pyran-4-yl)phenylamino)nicotinamide] | > 1000 | > 1000 | > 1000 |
| CC(C)[C@H](C)Nc1cc(Nc2ccc(C3CCOCC3)cc2)ncc1C(N)=O [Example 186, (S)-4-(3-methylbutan-2-ylamino)-6-(4-(tetrahydro-2H-pyran-4-yl)phenylamino)nicotinamide] | 100 to 1000 | 100 to 1000 | 10 to 100 |
| NC(=O)c1cnc(Nc2ccc(C3CCOCC3)cc2)cc1NCc1cn(CCN2CCCCC2)nn1 [Example 201, 4-((1-(2-(piperidin-1-yl)ethyl)-1H-1,2,3-triazol-4-yl)methylamino)-6-(4-(tetrahydro-2H-pyran-4-yl)phenylamino)nicotinamide] | > 1000 | > 1000 | > 1000 |
| NC(=O)c1cnc(Nc2cccc(C3CCOCC3)c2)cc1NCc1cccc(F)c1 [Example 204, 4-(3-fluorobenzylamino)-6-(3-(tetrahydro-2H-pyran-4-yl)phenylamino)nicotinamide] | 100 to 1000 | 10 to 100 | 1 to 10 |
| NC(=O)c1cnc(Nc2cccc(C3CCOCC3)c2)cc1NCc1cccc(F)c1F [Example 205, 4-(2,3-difluorobenzylamino)-6-(3-(tetrahydro-2H-pyran-4-yl)phenylamino)nicotinamide] | 100 to 1000 | 10 to 100 | 1 to 10 |
| NC(=O)c1cnc(Nc2cccc(C3CCOCC3)c2)cc1NCc1cc(F)cc(F)c1 [Example 206, 4-(3,5-difluorobenzylamino)-6-(3-(tetrahydro-2H-pyran-4-yl)phenylamino)nicotinamide] | 100 to 1000 | 10 to 100 | 1 to 10 |
| NC(=O)c1cnc(Nc2cccc(C3CCOCC3)c2)cc1NCc1cc(F)ccc1F [Example 207, 4-(2,5-difluorobenzylamino)-6-(3-(tetrahydro-2H-pyran-4-yl)phenylamino)nicotinamide] | 100 to 1000 | 10 to 100 | 1 to 10 |
| NC(=O)c1cnc(Nc2cccc(C3CCOCC3)c2)cc1NCc1cncc(F)c1 [Example 208, 4-((5-fluoropyridin-3-yl)methylamino)-6-(3-(tetrahydro-2H-pyran-4-yl)phenylamino)nicotinamide] | 100 to 1000 | 10 to 100 | 1 to 10 |
| NC(=O)c1cnc(Nc2ccc(C3CNC3)cc2)cc1NCc1cccc(F)c1F [Example 212, 6-(4-(azetidin-3-yl)phenylamino)-4-(2,3-difluorobenzylamino)nicotinamide] | 100 to 1000 | 10 to 100 | 1 to 10 |
| NC(=O)c1cnc(Nc2ccc(C3CNC3)cc2)cc1NCc1cc(F)ccc1F [Example 213, 6-(4-(azetidin-3-yl)phenylamino)-4-(2,5-difluorobenzylamino)nicotinamide] | 100 to 1000 | 10 to 100 | 1 to 10 |
| NC(=O)c1cnc(Nc2ccc(C3CCNCC3)cc2)cc1NCc1cc(F)ccc1F [Example 214, 4-(2,5-difluorobenzylamino)-6-(4-(piperidin-4-yl)phenylamino)nicotinamide] | 10 to 100 | 10 to 100 | 1 to 10 |
| CN(C)C(=O)c1ccc(Nc2cc(NCc3cccc(-n4ccnc4)c3)c(C(N)=O)cn2)cc1 [Example 224, 4-(3-(1H-imidazol-1-yl)benzylamino)-6-(4-(dimethylcarbamoyl)phenylamino)nicotinamide] | 100 to 1000 | 100 to 1000 | 1 to 10 |
| CC(=O)N1CCN(c2ccc(Nc3cc(NCc4ccc(F)cc4F)c(C(N)=O)cn3)cc2)CC1 [Example 259, 6-(4-(4-acetylpiperazin-1-yl)phenylamino)-4-(2,4-difluorobenzylamino)nicotinamide] | > 1000 | 100 to 1000 | 10 to 100 |

Continued, values first:

| IC50 (JAK1) [nM] | IC50 (JAK2) [nM] | IC50 (JAK3) [nM] | SMILES |
| --- | --- | --- | --- |
| > 1000 | > 1000 | 100 to 1000 | CCC(=O)N1CCC(c2ccc(Nc3cc(NCc4ncccn4)c(C(N)=O)cn3)cc2)CC1 [Example 180, 6-(4-(1-propionylpiperidin-4-yl)phenylamino)-4-(pyrimidin-2-ylmethylamino)nicotinamide] |
| > 1000 | > 1000 | > 1000 | Cn1c(CNc2cc(Nc3ccc(C4CCOCC4)cc3)ncc2C(N)=O)nc2ccccc21 [Example 182, 4-((1-methyl-1H-benzo[d]imidazol-2-yl)methylamino)-6-(4-(tetrahydro-2H-pyran-4-yl)phenylamino)nicotinamide] |
| 100 to 1000 | 100 to 1000 | 10 to 100 | Cn1ccnc1CNc1cc(Nc2ccc(C3CCOCC3)cc2)ncc1C(N)=O [Example 183, 4-((1-methyl-1H-imidazol-2-yl)methylamino)-6-(4-(tetrahydro-2H-pyran-4-yl)phenylamino)nicotinamide] |
| > 1000 | > 1000 | 100 to 1000 | C#CCNc1cc(Nc2ccc(C3CCOCC3)cc2)ncc1C(N)=O [Example 184, 4-(prop-2-ynylamino)-6-(4-(tetrahydro-2H-pyran-4-yl)phenylamino)nicotinamide] |
| 100 to 1000 | 100 to 1000 | 10 to 100 | NC(=O)c1cnc(Nc2ccc(C3CCOCC3)cc2)cc1NCc1cccnc1 [Example 185, 4-(pyridin-3-ylmethylamino)-6-(4-(tetrahydro-2H-pyran-4-yl)phenylamino)nicotinamide] |
| 10 to 100 | 10 to 100 | 1 to 10 | CCC(=O)N1CCC(c2ccc(Nc3cc(N[C@H](C)C(C)C)c(C(N)=O)cn3)cc2)CC1 [Example 189, (R)-4-(3-methylbutan-2-ylamino)-6-(4-(1-propionylpiperidin-4-yl)phenylamino)nicotinamide] |
| 10 to 100 | 10 to 100 | 1 to 10 | CCC(=O)N1CCC(c2ccc(Nc3cc(N[C@H](C)C(C)(C)C)c(C(N)=O)cn3)cc2)CC1 [Example 190, (R)-4-(3,3-dimethylbutan-2-ylamino)-6-(4-(1-propionylpiperidin-4-yl)phenylamino)nicotinamide] |
| > 1000 | > 1000 | 100 to 1000 | CCC(=O)N1CCC(c2ccc(Nc3cc(N[C@H](C)C4CCCCC4)c(C(N)=O)cn3)cc2)CC1 [Example 191, (R)-4-(1-cyclohexylethylamino)-6-(4-(1-propionylpiperidin-4-yl)phenylamino)nicotinamide] |
| > 1000 | 100 to 1000 | 10 to 100 | CCC(=O)N1CCC(c2ccc(Nc3cc(NCC4CCCCC4)c(C(N)=O)cn3)cc2)CC1 [Example 192, 4-(cyclohexylmethylamino)-6-(4-(1-propionylpiperidin-4-yl)phenylamino)nicotinamide] |
| > 1000 | > 1000 | 100 to 1000 | CCC(=O)N1CCC(c2ccc(Nc3cc(NCC4(c5ccccc5)CC4)c(C(N)=O)cn3)cc2)CC1 [Example 194, 4-((1-phenylcyclopropyl)methylamino)-6-(4-(1-propionylpiperidin-4-yl)phenylamino)nicotinamide] |
| 100 to 1000 | 100 to 1000 | 10 to 100 | CCC(=O)N1CCC(c2ccc(Nc3cc(N[C@H](C)C4CC4)c(C(N)=O)cn3)cc2)CC1 [Example 202, (R)-4-(1-cyclopropylethylamino)-6-(4-(1-propionylpiperidin-4-yl)phenylamino)nicotinamide] |
| 100 to 1000 | 10 to 100 | 1 to 10 | CCC(=O)N1CCC(c2ccc(Nc3cc(NCc4c(F)cccc4F)c(C(N)=O)cn3)cc2)CC1 [Example 203, 4-(2,6-difluorobenzylamino)-6-(4-(1-propionylpiperidin-4-yl)phenylamino)nicotinamide] |
| 10 to 100 | 10 to 100 | 1 to 10 | CCC(=O)N1CCC(c2ccc(Nc3cc(NCc4cccc5[nH]ncc45)c(C(N)=O)cn3)cc2)CC1 [Example 210, 4-((1H-indazol-4-yl)methylamino)-6-(4-(1-propionylpiperidin-4-yl)phenylamino)nicotinamide] |
| > 1000 | 100 to 1000 | 1 to 10 | CCC(=O)N1CCC(c2ccc(Nc3cc(NCc4cccc5ccsc45)c(C(N)=O)cn3)cc2)CC1 [Example 211, 4-(benzo[b]thiophen-7-ylmethylamino)-6-(4-(1-propionylpiperidin-4-yl)phenylamino)nicotinamide] |
| > 1000 | 100 to 1000 | 10 to 100 | N#CCN1CCC(c2ccc(Nc3cc(NCc4cccc(F)c4F)c(C(N)=O)cn3)cc2)CC1 [Example 215, 6-(4-(1-(cyanomethyl)piperidin-4-yl)phenylamino)-4-(2,3-difluorobenzylamino)nicotinamide] |
| > 1000 | > 1000 | 10 to 100 | NC(=O)c1cnc(Nc2ccc(C3CCN(CC(F)F)CC3)cc2)cc1NCc1cccc(F)c1F [Example 216, 4-(2,3-difluorobenzylamino)-6-(4-(1-(2,2-difluoroethyl)piperidin-4-yl)phenylamino)nicotinamide] |
| 100 to 1000 | 10 to 100 | 1 to 10 | NC(=O)c1cnc(Nc2ccc(C3CCN(CCF)CC3)cc2)cc1NCc1cccc(F)c1F [Example 217, 4-(2,3-difluorobenzylamino)-6-(4-(1-(2-fluoroethyl)piperidin-4-yl)phenylamino)nicotinamide] |
| 100 to 1000 | 10 to 100 | 1 to 10 | N#CCN1CCC(c2ccc(Nc3cc(NCc4cc(F)ccc4F)c(C(N)=O)cn3)cc2)CC1 [Example 218, 6-(4-(1-(cyanomethyl)piperidin-4-yl)phenylamino)-4-(2,5-difluorobenzylamino)nicotinamide] |
